# Test results as given in patent publication US11529361B2, “Halogenated salicylanilides for treating Clostridium infections” (UNION therapeutics A/S, priority 2015, dated 2022).
# Read-outs that look alike come from different tables or passages of the source.
# Experiments:
# [1] = tested on: C. difficile clinical isolates; conditions: C. difficile strain ATCC 700057, reference control; cited from earlier work
# [2] = tested on: C. difficile clinical isolates; assay: MIC determination by microbroth dilution per CLSI guideline (Example 1); format: cell-based, Clostridium difficile; conditions: Clostridioides difficile
# [3] = tested on: C. difficile; conditions: published data (footnote a); cited from earlier work
structure (smiles),measurement,setting,value
CN[C@H](CC(C)C)C(=O)N[C@H]1C(=O)N[C@@H](CC(N)=O)C(=O)N[C@H]2C(=O)N[C@H]3C(=O)N[C@H](C(=O)N[C@H](C(=O)O)c4cc(O)cc(O)c4-c4cc3ccc4O)[C@H](O)c3ccc(c(Cl)c3)Oc3cc2cc(c3O[C@@H]2O[C@H](CO)[C@@H](O)[C@H](O)[C@H]2O[C@H]2C[C@](C)(N)[C@H](O)[C@H](C)O2)Oc2ccc(cc2Cl)[C@H]1O [Vancomycin],expected MIC of reference control strain,[1],1 µg/mL
same,MIC,[2]; read-out: C. difficile Strain 7-6011209 MIC,0.125 µg/mL
same,MIC,[2]; read-out: C. difficile Strain 12055 MIC,0.25 µg/mL
same,Highest MIC observed,[3],16^a μg/mL
same,MIC90,[3],2^a μg/mL
